Measured values reported in patent publication EP0049913A2, “New ethenylimidazole derivatives, processes for their preparation and pharmaceutical compositions containing them; intermediates, useful in their preparation and a process for the preparation thereof” (GIST-BROCADES N.V., priority 1980, dated 1982).
Values after ≈ are worked out from the molar mass of the structure shown. Structures can show the parent of a compound that is named as a salt. Where two headings read alike, the source gives them in different places.

Assays:
[1] = system: Trichophyton mentagrophytes strain R 177; assay: method C: experimental dermatophytic infection in guinea pigs; type: in vivo; settings: local treatment, 2% in Plastibase, twice daily for 10 days; scored on 14th day; grades 1-4; untreated animals 4
Procedure: C. Testing of compounds against experimental dermatophytic infection. (Trichophyton mentagrophytes)
Out-bred blanco TNO female guinea pigs, five animals per group, weighing + 350 g, were prepared by depilation high in the middle of the back over an area 2.5 cm in diameter.
Inoculum was prepared from a culture of Trichophyton mentagrophytes strain R 177 on Mycological Agar. The harvested mycelial mat was diluted in a 20% dextrose solution in water and the suspension was smeared over the depilated area.
Local treatment with 2% concentration of the antimycotic in Plastibase started 72 hours after infection and concurrently the application of vehiculum (Plastibase) to the infected animals was initiated. The application was continued for 10 days and consisted of two applications daily of a measured quantity of ointment to the infected area.
Scoring of lesions and the final check was made on the 14th day after the infection was initiated. The lesions were graded as to the following parameters: • 1 = slight whitish scaling, with erythema • 2 = slight whitish or light yellow scaling with solitary haemorrhagias • 3 = thick whitish-yellow crust or scab • 4 = haemorrhagic ulcer or giant haemorrhagic thick scutula (crust).
The final results were recorded as the average of lesion intensities (A.L.I.) for each experimental group (treated with either test compound or reference compound and untreated control).

[2] = system: Candida albicans; assay: agar dilution test, Candida albicans; type: cell-based; settings: for Potency Ratio (P.R.) MIC 50 / Potency Ratio (P.R.) MIC 90: ratio to activity of miconazol (= 1)
Procedure: (§1) The compounds of the invention were tested in vitro and in vivo. The in vitro activities were determined by means of the usual agar dilution test. The results after two and five days were expressed as MIC 50 and MIC 90, i.e. the minimum concentrations giving complete inhibition of 50% or 90% of the strains tested in […] and as Potency Ratio (P.R.), i.e. the ratio between the activity of the test compound and the activity of miconazol (= 1).

[3] = system: Trichophyton spp.; assay: agar dilution test, Trichophyton spp.; type: cell-based; settings: 5 d, ratio to activity of miconazol (= 1)
Procedure: as §1

[4] = system: Candida albicans strain A 7; assay: method B: vaginitis candidamycetica in mice (vaginal reduction); type: in vivo; settings: clotrimazol = 100%
Procedure: Female Swiss SPF mice, weighing 19-21 g, fifteen animals per group, following an intramuscular premedication by Dimenformon prolongatum, were inoculated intravaginally with +5.105 CFU of Candida albicans strain A 7, harvested from a culture on Mycological Agar and suspended in physiological saline.
The treatment commenced 72 hours after infection when the candidiasis had reached its peak. A four day local treatment period was employed, consisting of two applications daily of 0.02 ml of antimycotics in Plastibase intravaginally. Alternatively, the test compound was administered orally in three doses daily for three days.
On the seventh day after infection the mice were killed, the vagina was excised and homogenized in saline and cultivated on Mycological Agar. The yeast cells were then counted and expressed as CFU/vagina. Results were analysed statistically using the T-test. The results were compared with those obtained with clotrimazol, the action of which was considered as 100%.

[5] = system: Candida albicans strain A 7; assay: method A: systemic infection with Candida albicans in mice; type: in vivo; settings: three doses daily for 3 days, control animals = 1
Procedure: A. Testing of compounds against systemic infection with Candida albicans in mice.
Female Swiss SPF mice, weighing […], ten animals per group, were challenged intravenously with 0.5 ml Candida albicans strain A 7 suspension containing sufficient yeast cells to kill 50% of the untreated animals within 5 days. The treatment consisted of three doses daily administered for 3 days either orally or intraperitoneally. Infected, non treated mice served as controls for mortality. The number of mice surviving the challenge was recorded daily and the ratio between the "median survival duration (days)" of the treated and untreated mice was determined, the survival duration of the control animals being graded as 1 (IMSD = Index Median Survival Duration).

[6] = 48 h, after 2 d, complete inhibition of 50% of the strains tested, read-out: MIC 50
[7] = 48 h, after 2 d, complete inhibition of 90% of the strains tested, read-out: MIC 90
[8] = 120 h, after 5 d, complete inhibition of 50% of the strains tested, read-out: MIC 50
[9] = 120 h, after 5 d, complete inhibition of 90% of the strains tested, read-out: MIC 90
[10] = local intravaginal treatment in Plastibase, two applications daily for four days
[11] = p.o., three doses daily for three days

SMILES	A.L.I. (average of lesion intensities) [1]	MIC50 [2, 6] [ng/mL]	MIC90 [2, 7] [ng/mL]	Potency Ratio (P.R.) MIC 50 ([2]; 2 d)	Potency Ratio (P.R.) MIC 90 ([2]; 2 d)	MIC50 [2, 8] [ng/mL]	MIC90 [2, 9] [ng/mL]	Potency Ratio (P.R.) MIC 50 ([2]; 5 d)	Potency Ratio (P.R.) MIC 90 ([2]; 5 d)	Potency Ratio (P.R.) MIC 50 [3]	Potency Ratio (P.R.) MIC 90 [3]	vag.red. % [4, 10] [%]	IMSD (Index Median Survival Duration) ([5]; i.p.)	IMSD (Index Median Survival Duration) ([5]; p.o.)	MIC50 ([2]; 48 h) [ng/mL]	MIC90 ([2]; 48 h) [ng/mL]	MIC50 ([2]; 120 h) [ng/mL]	MIC90 ([2]; 120 h) [ng/mL]	vag.red. % [4, 11]
CCCC(=Cn1ccnc1)c1ccc(Cl)cc1Cl.Cl [I, 1-[2-(2,4-dichlorophenyl)-1-pentenyl]-1H-imidazol hydrochloride]	0	3	8	1.0	1.2	4	9	1.0	0.7	35.3	13.9	35	1.4	3.0					
CCC(C)C(=Cn1ccnc1)c1ccc(Cl)cc1 (stereo not shown) [II, 1-[2-(4-chlorophenyl)-3-methyl-1-pentenyl] -lH-imidazole]	0	2 (≈ 0.00767 µM)	5 (≈ 0.0192 µM)	1.7	1.7	4 (≈ 0.0153 µM)	6 (≈ 0.023 µM)	1.2	1.9	2.8	2.1	98	3.8	4.6					
CCC(C)C(=Cn1ccnc1)c1ccc(Cl)cc1Cl.Cl (stereo not shown) [III, 1-[2-(2,4-Dichlorophenyl)-3-methyl-1-pentenyl]-1H-imidazole hydrochloride]	0	5	10	0.7	0.9	6	11	0.7	1.2	1.7	0.8	136	3.5	4.1					
CC(C)(C)C(=Cn1ccnc1)c1ccc(Cl)cc1Cl.O=[N+]([O-])O [IV, 1-[2-(2,4-dichlorophenyl)-3,3-dimethyl-1-butenyl]-1H-imidazole nitrate]	0			0.7	0.9			0.5	0.5	15.1	4.1.	59	5.1	3.1	3	5	5	11	24%
Clc1ccc(C(=Cn2ccnc2)C2CCCCC2)cc1 [V, 1-[2-(4-chlorophenyl)-2-cyclohexylethenyl] -lH-imidazole hydrochloride]		3	8	1.3	1.0	5	10	1.1	1.1	0.8	0.6		3.5	4.1					150 (p.o.) %
Clc1ccc(C(=Cn2ccnc2)C2CCCCC2)c(Cl)c1 [VI, 1-[2-cyclohexyl-2-(2,4-dichlorophenyl)ethenyl]-IH-imidazole hydrochloride]	0.4	4	8	0.9	0.7	5	11	0.8	0.6	1.9	1.0	97	3.7	3.9					52%
